Key:
[1] = Upregulation of efflux pump regulator promoter activity in Klebsiella pneumoniae assessed as increase in beta-galactosidase activity at 50 ug/ml by LacZ based OD600 analysis relative to control; assay type: ADME; conditions: dose 50 µg/ml
Enterobacter cloacae [2] = experiment: Hormesis activity against Enterobacter cloacae assessed as increase in antibiotic MIC by measuring streptomycin MIC at 3 ug/ml incubated for 12 hrs by OD600 based analysis (reference value: 12.5 ug/ml); assay type: ADME, organism-based; conditions: in vivo, dose 3 µg/ml
Klebsiella pneumoniae [3] = experiment: Hormesis activity against Klebsiella pneumoniae assessed as increase in antibiotic MIC by measuring ciprofloxacin MIC at 3 ug/ml incubated for 12 hrs by OD600 based analysis (reference value: 0.0390625 ug/ml); assay type: ADME, organism-based; conditions: in vivo, dose 3 µg/ml
Klebsiella pneumoniae [4] = experiment: Hormesis activity against Klebsiella pneumoniae deficient in KmrA gene expression assessed as increase in antibiotic MIC by measuring azithromycin MIC at 3 ug/ml incubated for 12 hrs by OD600 based analysis (reference value: 0.78125 ug/ml); assay type: ADME, organism-based; conditions: in vivo, dose 3 µg/ml
Enterobacter cloacae [5] = experiment: Hormesis activity against Enterobacter cloacae assessed as increase in antibiotic MIC by measuring tetracycline MIC at 3 ug/ml incubated for 12 hrs by OD600 based analysis (reference value: 8 ug/ml); assay type: ADME, organism-based; conditions: in vivo, dose 3 µg/ml
[6] = Upregulation of KmrA promoter activity in Klebsiella pneumoniae assessed as increase in beta-galactosidase activity at 6 to 50 ug/ml by LacZ based OD600 analysis; assay type: ADME; conditions: dose 6-50 µg/ml
Klebsiella pneumoniae [7] = experiment: Hormesis activity against Klebsiella pneumonia assessed as promotion of bacterial growth by measuring prolonged logarithmic growth phase at 3 to 6 ug/ml measured from 840 to 1440 mins by OD600 based analysis; assay type: organism-based; conditions: in vivo, dose lower 3 µg/ml, time lower 840 min, dose upper 6 µg/ml, time upper 1440 min
Acinetobacter baumannii [8] = experiment: Hormesis activity against Acinetobacter baumannii assessed as increase in antibiotic MIC by measuring hygromycinMIC at 3 ug/ml incubated for 12 hrs by OD600 based analysis (reference value: 125 ug/ml); assay type: ADME, organism-based; conditions: in vivo, dose 3 µg/ml
Acinetobacter baumannii [9] = experiment: Hormesis activity against Acinetobacter baumannii assessed as increase in antibiotic MIC by measuring ampicillin MIC at 3 ug/ml incubated for 12 hrs by OD600 based analysis (reference value: 100 ug/ml); assay type: ADME, organism-based; conditions: in vivo, dose 3 µg/ml
Enterobacter cloacae [10] = experiment: Hormesis activity against overnight compound-treated Enterobacter cloacae assessed as increase in antibiotic MIC by measuring atreonamMIC at 3 ug/ml incubated for 12 hrs by OD600 based analysis (reference value: 3.125 ug/ml); assay type: ADME, organism-based; conditions: in vivo, dose 3 µg/ml
Klebsiella pneumoniae [11] = experiment: Hormesis activity against overnight compound-treated Klebsiella pneumoniae assessed as increase in antibiotic MIC by measuring streptomycin MIC at 3 ug/ml incubated for 12 hrs by OD600 based analysis (reference value: 0.78125 ug/ml); assay type: ADME, organism-based; conditions: in vivo, dose 3 µg/ml
Klebsiella pneumoniae [12] = experiment: Hormesis activity against overnight compound-treated Klebsiella pneumoniae deficient in KmrA gene expression assessed as increase in antibiotic MIC by measuring ampicillin MIC at 3 ug/ml incubated for 12 hrs by OD600 based analysis (reference value: 12.5 ug/ml); assay type: ADME, organism-based; conditions: in vivo, dose 3 µg/ml
Klebsiella pneumoniae [13] = experiment: Hormesis activity against Klebsiella pneumoniae assessed as increase in antibiotic MIC by measuring azithromycin MIC at 3 ug/ml incubated for 12 hrs by OD600 based analysis (reference value: 1.5625 ug/ml); assay type: ADME, organism-based; conditions: in vivo, dose 3 µg/ml
Acinetobacter baumannii [14] = experiment: Hormesis activity against Acinetobacter baumannii assessed as increase in antibiotic MIC by measuring meropenem MIC at 3 ug/ml incubated for 12 hrs by OD600 based analysis (reference value: 0.625 ug/ml); assay type: ADME, organism-based; conditions: in vivo, dose 3 µg/ml
Klebsiella pneumoniae [15] = experiment: Hormesis activity against Klebsiella pneumoniae assessed as increase in antibiotic MIC by measuring streptomycin MIC at 3 ug/ml incubated for 12 hrs by OD600 based analysis (reference value: 0.78125 ug/ml); assay type: ADME, organism-based; conditions: in vivo, dose 3 µg/ml
Acinetobacter baumannii [16] = experiment: Hormesis activity against Acinetobacter baumannii assessed as increase in antibiotic MIC by measuring streptomycin MIC at 3 ug/ml incubated for 12 hrs by OD600 based analysis (reference value: 400 ug/ml); assay type: ADME, organism-based; conditions: in vivo, dose 3 µg/ml
Acinetobacter baumannii [17] = experiment: Hormesis activity against overnight-compound treated Acinetobacter baumannii assessed as increase in antibiotic MIC by measuring atreonamMIC at 3 ug/ml incubated for 12 hrs by OD600 based analysis (reference value: 6.25 ug/ml); assay type: ADME, organism-based; conditions: in vivo, dose 3 µg/ml
Klebsiella pneumoniae [18] = experiment: Hormesis activity against Klebsiella pneumoniae assessed as promotion of bacterial growth at 3 to 6 ug/ml measured for 24 hrs in presence of efflux pump inhibitor, CCCP and 1 to 2 ug/ml tetracycline by OD600 based analysis; assay type: ADME, organism-based; conditions: in vivo, dose 3-6 µg/ml
Klebsiella pneumoniae [19] = experiment: Hormesis activity against Klebsiella pneumonia assessed as promotion of delayed bacterial growth at 25 to 50 ug/ml measured for 24 hrs in presence of 1 ug/ml tetracycline by OD600 based analysis; assay type: organism-based; conditions: in vivo, dose 25-50 µg/ml
Acinetobacter baumannii [20] = experiment: Hormesis activity against overnight-compound treated Acinetobacter baumannii assessed as increase in antibiotic MIC by measuring ciprofloxacin MIC at 3 ug/ml incubated for 12 hrs by OD600 based analysis (reference value: 0.3125 ug/ml); assay type: ADME, organism-based; conditions: in vivo, dose 3 µg/ml
[21] = Upregulation of efflux pump regulator gene expression in Klebsiella pneumoniae at 3 ug/ml incubated for 12 hrs by transcriptome analysis; assay type: ADME; conditions: dose 3 µg/ml
Klebsiella pneumoniae [22] = experiment: Hormesis activity against overnight compound-treated Klebsiella pneumoniae assessed as increase in antibiotic MIC by measuring chloramphenicol MIC at 3 ug/ml incubated for 12 hrs by OD600 based analysis (reference value: 6.25 ug/ml); assay type: ADME, organism-based; conditions: in vivo, dose 3 µg/ml
Acinetobacter baumannii [23] = experiment: Hormesis activity against overnight-compound treated Acinetobacter baumannii assessed as increase in antibiotic MIC by measuring tetracycline MIC at 3 ug/ml incubated for 12 hrs by OD600 based analysis (reference value: 240 ug/ml); assay type: ADME, organism-based; conditions: in vivo, dose 3 µg/ml
Acinetobacter baumannii [24] = experiment: Hormesis activity against Acinetobacter baumannii assessed as increase in antibiotic MIC by measuring tetracycline MIC at 3 ug/ml incubated for 12 hrs by OD600 based analysis (reference value: 240 ug/ml); assay type: ADME, organism-based; conditions: in vivo, dose 3 µg/ml
Enterobacter cloacae [25] = experiment: Hormesis activity against Enterobacter cloacae assessed as increase in antibiotic MIC by measuring atreonamMIC at 3 ug/ml incubated for 12 hrs by OD600 based analysis (reference value: 3.125 ug/ml); assay type: ADME, organism-based; conditions: in vivo, dose 3 µg/ml
Klebsiella pneumoniae [26] = experiment: Hormesis activity against overnight compound-treated Klebsiella pneumoniae assessed as increase in antibiotic MIC by measuring hygromycinMIC at 3 ug/ml incubated for 12 hrs by OD600 based analysis (reference value: 12.5 ug/ml); assay type: ADME, organism-based; conditions: in vivo, dose 3 µg/ml
Klebsiella pneumoniae [27] = experiment: Hormesis activity against overnight compound-treated Klebsiella pneumoniae deficient in KmrA gene expression assessed as increase in antibiotic MIC by measuring streptomycin MIC at 3 ug/ml incubated for 12 hrs by OD600 based analysis (reference value: 0.78125 ug/ml); assay type: ADME, organism-based; conditions: in vivo, dose 3 µg/ml
Enterobacter cloacae [28] = experiment: Hormesis activity against Enterobacter cloacae assessed as increase in antibiotic MIC by measuring rifampicin MIC at 3 ug/ml incubated for 12 hrs by OD600 based analysis (reference value: 25 ug/ml); assay type: ADME, organism-based; conditions: in vivo, dose 3 µg/ml
Klebsiella pneumoniae [29] = experiment: Hormesis activity against overnight compound-treated Klebsiella pneumoniae assessed as increase in antibiotic MIC by measuring azithromycin MIC at 3 ug/ml incubated for 12 hrs by OD600 based analysis (reference value: 1.5625 ug/ml); assay type: ADME, organism-based; conditions: in vivo, dose 3 µg/ml

Q: With COc1ccc2cc3[n+](cc2c1OC)CCc1cc2c(cc1-3)OCO2 [BERBERINE] as the molecule, how does the “fold change (FC)” value [1] read?
A: 2

Q: And the MIC (Enterobacter cloacae [2])?
A: 12.5 µg/mL

Q: What about the MIC (Klebsiella pneumoniae [3]) of the same molecule?
A: 0.07812 µg/mL

Q: What about the MIC (Klebsiella pneumoniae [4]) of the same molecule?
A: 0.7812 µg/mL

Q: What about the MIC (Enterobacter cloacae [5]) of the same molecule?
A: 8 µg/mL

Q: What about the Activity [6] of the same molecule?
A: Toxic

Q: And the Activity (Klebsiella pneumoniae [7])?
A: Toxic

Q: And the MIC (Acinetobacter baumannii [8])?
A: 250 µg/mL

Q: And the MIC (Acinetobacter baumannii [9])?
A: 200 µg/mL

Q: What about the MIC (Enterobacter cloacae [10]) of the same molecule?
A: 3.125 µg/mL

Q: What about the MIC (Klebsiella pneumoniae [11]) of the same molecule?
A: 3.125 µg/mL

Q: What about the MIC (Klebsiella pneumoniae [12]) of the same molecule?
A: 12.5 µg/mL

Q: What about the MIC (Klebsiella pneumoniae [13]) of the same molecule?
A: 3.125 µg/mL

Q: What about the MIC (Acinetobacter baumannii [14]) of the same molecule?
A: 0.625 µg/mL

Q: And the MIC (Klebsiella pneumoniae [15])?
A: 1.5625 µg/mL

Q: And the MIC (Acinetobacter baumannii [16])?
A: 400 µg/mL

Q: And the MIC (Acinetobacter baumannii [17])?
A: 6.25 µg/mL

Q: And the Activity (Klebsiella pneumoniae [18])?
A: Non-Toxic

Q: What about the Activity (Klebsiella pneumoniae [19]) of the same molecule?
A: Non-Toxic

Q: And the MIC (Acinetobacter baumannii [20])?
A: 0.625 µg/mL

Q: And the Activity [21]?
A: Toxic

Q: And the MIC (Klebsiella pneumoniae [22])?
A: 6.25 µg/mL

Q: What about the MIC (Acinetobacter baumannii [23]) of the same molecule?
A: 360 µg/mL

Q: What about the MIC (Acinetobacter baumannii [24]) of the same molecule?
A: 240 µg/mL

Q: What about the MIC (Enterobacter cloacae [25]) of the same molecule?
A: 3.125 µg/mL

Q: And the MIC (Klebsiella pneumoniae [26])?
A: 12.5 µg/mL

Q: What about the MIC (Klebsiella pneumoniae [27]) of the same molecule?
A: 1.5625 µg/mL

Q: And the MIC (Enterobacter cloacae [28])?
A: 25 µg/mL

Q: What about the MIC (Klebsiella pneumoniae [29]) of the same molecule?
A: 3.125 µg/mL

Source: ChEMBL document CHEMBL4831545, “Hormesis Effect of Berberine against Klebsiella pneumoniae Is Mediated by Up-Regulation of the Efflux Pump KmrA” (J Nat Prod, 2021)
